Results: patent US8629173B2, “Solid forms comprising (+)-2-[1-(3-ethoxy-4-methoxyphenyl)-2-methylsulfonylethyl]-4-acetylaminoisoindoline-1,3-dione, compositions thereof, and uses thereof” (Celgene Corporation, priority 2002, dated 2014)

Legend:
[1] = biological target: PDE7 purified from Hut78 human T cells (Homo sapiens, UniProt Q13946); test: PDE7 enzyme assay; type: biochemical; settings: 10 nM cAMP
Procedure: PDE7 is a cAMP-selective PDE expressed mainly in T cells and in skeletal muscle. T cell-derived cytokines such as IL-2 and IFN-γ are potentially regulatable via PDE7 inhibition. […] Compounds were tested against the PDE7 preparation in the presence of 10 nM cAMP as described for PDE4 in Table 1.

[2] = tested on: Zymosan-induced IL-8 production in human neutrophils; test: Zymosan-induced IL-8 production; type: cell-based; settings: Neutrophil, 18 hours
Procedure: Zymosan A, or the heat-killed yeast Saccharomyces cerevisiae, binds to the adhesion molecule Mac-1 on the neutrophil surface and triggers phagocytosis, cell activation and IL-8 production. Zymosan-induced IL-8 production was measured as previously described (Au et al., 1998, Brit. J. Pharm., 123:1260-1266) with the following modifications. Human neutrophils were purified as described above, plated in 96-well tissue culture plates at 3×10^5 cells/well in complete medium, treated with compounds at 10, 2, 0.4, 0.08, 0.016, 0.0032, 0.00064, and 0 μM in duplicate in a final DMSO concentration of 0.1% for 1 hour at 37° C. 5% CO2. Neutrophils were then stimulated with unopsonized, boiled Zymosan A (Sigma) at 2.5×10^5 particles/well for 18 hours. Supernatants were harvested and tested for IL-8 by ELISA (R&D Systems).

[3] = tested on: CD11b expression on neutrophils; test: fMLF-induced CD11b expression on neutrophils; type: cell-based; settings: Neutrophil; human neutrophils, 30 nM fMLF
Procedure: CD18/CD11b (Mac-1) expression on neutrophils was measured as previously described (Derian et al., 1995, J. Immunol., 154:308-3 17) with the following modifications. Neutrophils were isolated as described above, then resuspended in complete medium at 1×10^6 cells/ml, pretreated with compounds at 10, 1, 0.1, 0.01, and 0 μM in duplicate at a final DMSO concentration of 0.1% for 10 minutes at 37° C. 5% CO2. Cells were then stimulated with 30 nM fMLF for 30 minutes and then chilled to 4° C. Cells were treated with rabbit IgG (Jackson ImmunoResearch Labs, West Grove, Pa., USA) (10 μg/1×10^6 cells) to block Fc receptors, stained with CD18-FITC and CD11b-PE (Becton Dickinson), and analyzed by flow cytometry on a FACSCalibur. CD18/CD11b expression (mean fluorescence) in the absence of stimulation was subtracted from all samples to obtain inhibition curves and calculate IC50 values.

[4] = biological target: T1, PDE6 from bovine retinal rod outer segments (Bos taurus, UniProt P11541+P23439); test: PDE6 enzyme assay; type: biochemical
T1 construct: PDE6 from bovine retinal rod outer segments; from tissue; host or cells: bovine retinal rod outer segments
T1 sequence (P11541 2-856 limits assumed): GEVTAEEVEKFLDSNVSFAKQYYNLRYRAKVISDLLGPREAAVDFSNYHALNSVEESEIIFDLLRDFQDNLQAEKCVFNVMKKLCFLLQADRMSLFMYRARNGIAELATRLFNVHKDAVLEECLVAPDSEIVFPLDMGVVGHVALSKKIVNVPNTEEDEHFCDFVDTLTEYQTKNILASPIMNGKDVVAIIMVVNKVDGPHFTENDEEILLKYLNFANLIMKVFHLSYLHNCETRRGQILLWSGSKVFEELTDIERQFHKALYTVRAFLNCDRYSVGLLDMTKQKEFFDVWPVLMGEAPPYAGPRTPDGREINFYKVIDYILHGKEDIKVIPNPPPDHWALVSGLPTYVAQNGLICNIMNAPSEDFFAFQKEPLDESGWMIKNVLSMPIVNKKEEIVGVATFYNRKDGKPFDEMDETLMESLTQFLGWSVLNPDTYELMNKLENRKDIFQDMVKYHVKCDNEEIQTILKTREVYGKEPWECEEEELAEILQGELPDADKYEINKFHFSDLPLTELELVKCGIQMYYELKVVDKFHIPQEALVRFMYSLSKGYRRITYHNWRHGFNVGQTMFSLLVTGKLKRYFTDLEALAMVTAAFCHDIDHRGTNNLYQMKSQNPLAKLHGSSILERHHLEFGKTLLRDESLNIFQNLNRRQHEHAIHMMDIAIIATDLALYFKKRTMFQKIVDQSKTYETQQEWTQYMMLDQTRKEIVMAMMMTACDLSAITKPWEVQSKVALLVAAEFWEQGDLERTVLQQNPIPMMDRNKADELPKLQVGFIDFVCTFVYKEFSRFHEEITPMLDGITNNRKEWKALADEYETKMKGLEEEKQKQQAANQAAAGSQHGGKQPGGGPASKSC
T1 sequence (P23439 2-850 limits assumed): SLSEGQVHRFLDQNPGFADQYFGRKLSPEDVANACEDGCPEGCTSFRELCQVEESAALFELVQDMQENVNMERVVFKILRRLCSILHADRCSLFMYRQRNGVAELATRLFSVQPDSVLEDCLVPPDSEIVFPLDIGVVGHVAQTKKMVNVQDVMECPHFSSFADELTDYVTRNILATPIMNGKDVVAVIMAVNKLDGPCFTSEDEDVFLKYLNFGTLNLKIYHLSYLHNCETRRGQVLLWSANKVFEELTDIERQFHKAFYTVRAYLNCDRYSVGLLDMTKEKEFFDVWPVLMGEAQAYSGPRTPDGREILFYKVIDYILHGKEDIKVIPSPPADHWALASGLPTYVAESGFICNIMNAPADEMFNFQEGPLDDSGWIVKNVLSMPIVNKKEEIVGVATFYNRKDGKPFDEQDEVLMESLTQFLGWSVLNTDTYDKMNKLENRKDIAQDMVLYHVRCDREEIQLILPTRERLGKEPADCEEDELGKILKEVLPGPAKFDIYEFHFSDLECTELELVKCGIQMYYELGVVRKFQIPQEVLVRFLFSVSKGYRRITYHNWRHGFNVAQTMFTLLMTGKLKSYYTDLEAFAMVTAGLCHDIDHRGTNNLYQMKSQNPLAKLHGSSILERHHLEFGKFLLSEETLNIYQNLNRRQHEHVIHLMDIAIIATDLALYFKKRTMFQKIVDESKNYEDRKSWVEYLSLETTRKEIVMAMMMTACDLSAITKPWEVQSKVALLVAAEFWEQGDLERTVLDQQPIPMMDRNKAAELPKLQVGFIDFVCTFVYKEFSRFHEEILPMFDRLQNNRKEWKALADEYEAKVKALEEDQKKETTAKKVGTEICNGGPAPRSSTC

[5] = biological target: PDE5 from human platelets (Homo sapiens, UniProt O76074); test: PDE5 enzyme assay; type: biochemical
bovine PDE1 = test: PDE1 enzyme assay; type: biochemical
[6] = biological target: PDE3 from human platelets (Homo sapiens, UniProt Q14432); test: PDE3 enzyme assay; type: biochemical
Sequence of PDE3 from human platelets (Q14432 whole entry): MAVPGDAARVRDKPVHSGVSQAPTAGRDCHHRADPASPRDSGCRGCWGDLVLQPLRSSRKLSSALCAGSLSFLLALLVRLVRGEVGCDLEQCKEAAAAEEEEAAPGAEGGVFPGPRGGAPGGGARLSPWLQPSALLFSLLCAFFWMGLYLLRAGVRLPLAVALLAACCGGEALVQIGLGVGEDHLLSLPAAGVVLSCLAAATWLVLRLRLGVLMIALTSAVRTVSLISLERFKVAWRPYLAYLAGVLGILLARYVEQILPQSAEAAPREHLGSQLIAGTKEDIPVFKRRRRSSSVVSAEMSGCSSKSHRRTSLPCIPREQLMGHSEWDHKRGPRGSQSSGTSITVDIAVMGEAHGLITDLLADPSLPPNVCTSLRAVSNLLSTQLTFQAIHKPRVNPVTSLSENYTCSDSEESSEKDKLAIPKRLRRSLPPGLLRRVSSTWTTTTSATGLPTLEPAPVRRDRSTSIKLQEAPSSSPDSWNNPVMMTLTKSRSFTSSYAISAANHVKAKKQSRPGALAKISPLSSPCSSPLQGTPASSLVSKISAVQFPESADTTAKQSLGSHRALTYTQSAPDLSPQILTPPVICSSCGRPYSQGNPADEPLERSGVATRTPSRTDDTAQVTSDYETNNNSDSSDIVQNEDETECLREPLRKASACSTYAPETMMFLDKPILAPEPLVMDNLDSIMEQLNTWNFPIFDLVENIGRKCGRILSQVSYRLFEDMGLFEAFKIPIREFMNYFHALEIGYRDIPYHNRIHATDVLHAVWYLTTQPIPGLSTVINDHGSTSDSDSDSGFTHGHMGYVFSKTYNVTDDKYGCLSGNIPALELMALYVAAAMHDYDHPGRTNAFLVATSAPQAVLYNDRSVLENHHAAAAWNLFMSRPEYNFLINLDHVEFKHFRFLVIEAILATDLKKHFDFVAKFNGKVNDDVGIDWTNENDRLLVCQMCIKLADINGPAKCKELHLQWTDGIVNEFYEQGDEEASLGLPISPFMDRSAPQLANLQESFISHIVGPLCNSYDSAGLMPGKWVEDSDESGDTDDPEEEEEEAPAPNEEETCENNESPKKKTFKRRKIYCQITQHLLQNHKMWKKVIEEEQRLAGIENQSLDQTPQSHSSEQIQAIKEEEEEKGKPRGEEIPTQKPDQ

Sequence of PDE7 purified from Hut78 human T cells (Q13946 whole entry): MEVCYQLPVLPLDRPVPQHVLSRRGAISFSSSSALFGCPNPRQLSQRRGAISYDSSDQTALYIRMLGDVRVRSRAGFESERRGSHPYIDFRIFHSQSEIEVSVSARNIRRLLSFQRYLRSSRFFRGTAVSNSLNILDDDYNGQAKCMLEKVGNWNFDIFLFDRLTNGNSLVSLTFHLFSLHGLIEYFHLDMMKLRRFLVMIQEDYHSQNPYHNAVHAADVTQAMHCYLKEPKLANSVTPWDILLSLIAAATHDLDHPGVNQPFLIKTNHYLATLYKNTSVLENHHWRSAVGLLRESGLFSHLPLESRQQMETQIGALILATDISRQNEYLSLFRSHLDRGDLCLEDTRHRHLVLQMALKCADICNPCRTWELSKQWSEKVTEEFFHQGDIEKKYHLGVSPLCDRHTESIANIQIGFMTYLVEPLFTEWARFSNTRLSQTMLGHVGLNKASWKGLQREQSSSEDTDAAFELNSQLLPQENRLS

Compound `CCOc1cc(C(CS(C)(=O)=O)N2C(=O)c3cccc(NC(C)=O)c3C2=O)ccc1OC` (single isomer, unassigned; (+)) [Compound A, (+)-2-[1-(3-ethoxy-4-methoxyphenyl)-2-methylsulfonylethyl]-4-acetylaminoisoindoline-1,3-dione] has an IC50 [1] of 20.5 µM, an IC50 [2] of 94 nM and an IC50 [3] of 74 nM. The “PDE Specificity Ratio PDE4/PDE6” value ([4]; from Table 1 data) was greater than 40000 fold, the inhibition at 10 µM ([4]; read-out: PDE6 (% inhib at 10 μM)) was -6% and the “PDE Specificity Ratio PDE4/PDE5” value ([5]; from Table 1 data) was greater than 30000 fold. The inhibition at 10 µM ([5]; read-out: PDE5 (% inhib at 10 μM)) was 3%, the “PDE1 (% inhib at 10 μM)” value (bovine PDE1; 10 μM) was 23% and the “PDE Specificity Ratio PDE4/PDE1” value (bovine PDE1; from Table 1 data) was greater than 500 fold. For the same compound, the “PDE Specificity Ratio PDE4/PDE3” value ([6]; from Table 1 data) was greater than 1200 fold and the inhibition at 10 µM ([6]; read-out: PDE3 (% inhib at 10 μM)) was 20%.
